# Test results published in patent US20240083861A1, “HSD17B13 INHIBITORS AND USES THEREOF” (FL2022-001, Inc., priority 2020, published 2024).
# Target: T1, Recombinant human HSD17B13 enzyme (Homo sapiens, UniProt Q7Z5P4)
# T1 sequence (Q7Z5P4 20-300): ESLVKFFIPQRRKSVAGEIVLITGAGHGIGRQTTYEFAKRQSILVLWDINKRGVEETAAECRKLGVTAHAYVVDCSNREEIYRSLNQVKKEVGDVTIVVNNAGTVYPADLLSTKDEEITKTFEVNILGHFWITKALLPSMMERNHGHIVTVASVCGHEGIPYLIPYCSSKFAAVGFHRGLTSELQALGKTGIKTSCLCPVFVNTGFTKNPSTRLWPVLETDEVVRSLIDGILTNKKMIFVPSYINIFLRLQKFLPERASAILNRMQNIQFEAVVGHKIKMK
# Experiment: HSD17b13 NAD(P)H-Glo biochemical assay
# Settings: 50 uM estradiol, 1 mM NAD+, NAD(P)H-Glo luminescence; read-out: HSD17β13 IC50
# Protocol: Example B-1: HSD17b13 NAD(P)H-Glo Biochemical Assay
# Recombinant human HSD17B13 enzyme. Substrate: estradiol (Sigma β-Estradiol E8875), 100 mM in DMSO. Cofactor: NAD+ Grade I free acid (Sigma 10127965001), 20 mM in H2O. Assay buffer final concentration: 20 mM Tris pH7.4 with 0.002% Tween-20 and 0.02% BSA. Assay performed in 384 well solid bottom plate (Corning 3570). Enzymatic activity detected by NAD(P)H-Glo™ Detection System (Promega G9062).
# Inhibitor compounds were serially diluted in DMSO and then further diluted in assay buffer to a 10× concentration consisting of 1% DMSO.
# HSD17b13 enzyme was diluted in 1× assay buffer to the desired enzyme concentration based on the specific activity of the enzyme lot. 20 uL of diluted enzyme was added to each well along with 2.5 uL of 10× inhibitor solution. Assay plate was incubated at RT for 20 minutes, and then 2.5 uL of a 10× substrate/cofactor mix was added to each well for a final concentration of 50 uM estradiol and 1 mM NAD+. Assay plate was incubated at 37° C. for 3 hours. NAD(P)H-Glo™ Detection System reagents were prepared according to manufacturer's specifications, and 25 uL was added to each well. After incubating for 1 hour at RT, luminescence was measured.
row,Structure (SMILES),IC50 [nM]
1,"O=C(NC1CCC1)c1ccc2oc(-c3cc(O)cc(C(F)(F)F)c3)nc2c1 [Compound 2, N-Cyclobutyl-2-(3-hydroxy-5-(trifluoromethyl)phenyl)benzo[d]oxazole-5-carboxamide]",100 to 1000
2,"Oc1cc(-c2nc3cc(-c4ccc(O)c(Cl)c4)ccc3o2)ccc1F [Compound 3, 2-Chloro-4-(2-(4-fluoro-3-hydroxyphenyl)benzo[d]oxazol-5-yl)phenol]",100 to 1000
3,"Oc1cc(-c2nc3ccc(-c4ccc(O)c(Cl)c4)cc3o2)ccc1F [Compound 3.01, 2-Chloro-4-(2-(4-fluoro-3-hydroxyphenyl)benzo[d]oxazol-6-yl)phenol]",100 to 1000
4,"Oc1cccc(-c2ccc3oc(-c4ccc(F)c(O)c4)nc3c2)c1 [Compound 3.03, 2-Fluoro-5-(5-(3-hydroxyphenyl)benzo[d]oxazol-2-yl)phenol]",1000 to 30000
5,"CS(=O)(=O)N1CCN(c2ccc3oc(-c4ccc(F)c(O)c4)nc3c2)CC1 [Compound 4, 2-Fluoro-5-(5-(4-(methylsulfonyl)piperazin-1-yl)benzo[d]oxazol-2-yl)phenol]",100 to 1000
6,"CS(=O)(=O)N1CCN(c2ccc3oc(-c4cc(O)cc(C(F)(F)F)c4)nc3c2)CC1 [Compound 4.02, 3-(5-(4-(Methylsulfonyl)piperazin-1-yl)benzo[d]oxazol-2-yl)-5-(trifluoromethyl)phenol]",100 to 1000
7,"CS(=O)(=O)C1CN(c2cc3nc(-c4cc(O)c(F)c(F)c4)oc3cc2Cl)C1 [Compound 5.01, 5-(6-Chloro-5-(3-(methylsulfonyl)azetidine-1-yl)benzo[d]oxazol-2-yl)-2,3-difluorophenol]",100 to 1000
8,"CS(=O)(=O)N1CCN(c2ccc3nc(-c4cc(O)c(F)c(C(F)(F)F)c4)oc3c2)CC1 [Compound 6.02, 2-Fluoro-5-(6-(4-(methylsulfonyl)piperazin-1-yl)benzo[d]oxazol-2-yl)-3-(trifluoromethyl)phenol]",< 100
9,"CS(=O)(=O)N1CCN(c2ccc3oc(-c4cc(C(F)(F)F)c(F)c(O)c4F)nc3c2)CC1 [Compound 7, 2,6-Difluoro-3-(5-(4-(methylsulfonyl)piperazin-1-yl)benzo[d]oxazol-2-yl)-5-(trifluoromethyl)phenol]",100 to 1000
10,"Cn1nc(-c2cc(C(F)(F)F)cc(O)c2F)c2cnc(N3CCN(S(C)(=O)=O)CC3)cc21 [Compound 9.01, 2-Fluoro-3-(1-methyl-6-(4-(methylsulfonyl)piperazin-1-yl)-1H-pyrazolo[4,3-c]pyridin-3-yl)-5-(trifluoromethyl)phenol]",< 100
11,"Cn1nc(-c2cc(C(F)(F)F)cc(O)c2F)c2ccc(N3CCN(S(C)(=O)=O)CC3)cc21 [Compound 9.02, 2-Fluoro-3-(1-methyl-6-(4-(methylsulfonyl)piperazin-1-yl)-1H-indazol-3-yl)-5-(trifluoromethyl)phenol]",1000 to 30000
12,"Cn1nc(-c2cc(C(F)(F)F)c(F)c(O)c2F)c2cnc(N3CC4(CCOCC4)C3)nc21 [Compound 9.04, 2,6-Difluoro-3-(1-methyl-6-(7-oxa-2-azaspiro[3.5]nonan-2-yl)-1H-pyrazolo[3,4-d]pyrimidin-3-yl)-5-(trifluoromethyl)phenol]",< 100
13,"Cn1nc(-c2cc(C(F)(F)F)c(F)c(O)c2F)c2cnc(N3CCC3(C)C)nc21 [Compound 9.05, 3-(6-(2,2-Dimethylazetidin-1-yl)-1-methyl-1H-pyrazolo[3,4-d]pyrimidin-3-yl)-2,6-difluoro-5-(trifluoromethyl)phenol]",100 to 1000
14,"Cn1nc(-c2cc(C(F)(F)F)c(F)c(O)c2F)c2cnc(N3CC(C)(C#N)C3)cc21 [Compound 9.08, 1-(3-(2,4-Difluoro-3-hydroxy-5-(trifluoromethyl)phenyl)-1-methyl-1H-pyrazolo[4,3-c]pyridin-6-yl)-3-methylazetidine-3-carbonitrile]",< 100

# More lines, now with the values ahead:
row,IC50 [nM],Structure (SMILES)
1,< 100,"O=C(NC12CC(C1)C2)c1ccc2oc(-c3cc(O)cc(C(F)(F)F)c3)nc2c1 [Compound 2.01, N-(Bicyclo[1.1.1]pentan-1-yl)-2-(3-hydroxy-5-(trifluoromethyl)phenyl)benzo[d]oxa-zole-5-carboxamide]"
2,100 to 1000,"Oc1ccc(-c2ccc3oc(-c4ccc(F)c(O)c4)nc3c2)cc1 [Compound 3.02, 2-Fluoro-5-(5-(4-hydroxyphenyl)benzo[d]oxazol-2-yl)phenol]"
3,100 to 1000,"CS(=O)(=O)N1CCN(c2ccc3nc(-c4cc(O)cc(C(F)(F)F)c4)oc3c2)CC1 [Compound 4.01, 3-(6-(4-(Methylsulfonyl)piperazin-1-yl)benzo[d]oxazol-2-yl)-5-(trifluoromethyl)phenol]"
4,100 to 1000,"CS(=O)(=O)N1CCN(c2cc3nc(-c4cc(O)c(F)c(F)c4)oc3cc2Cl)CC1 [Compound 5, 5-(6-Chloro-5-(4-(methylsulfonyl)piperazin-1-yl)benzo[d]oxazol-2-yl)-2,3-difluorophenol]"
5,100 to 1000,"CS(=O)(=O)N1CCN(c2ccc3oc(-c4cc(O)c(F)c(F)c4)nc3c2)CC1 [Compound 5.02, 2,3-Difluoro-5-(5-(4-(methylsulfonyl)piperazin-1-yl)benzo[d]oxazol-2-yl)phenol]"
6,< 100,"CS(=O)(=O)N1CCN(c2ccc3oc(-c4cc(O)c(F)c(C(F)(F)F)c4)nc3c2)CC1 [Compound 6, 2-Fluoro-5-(5-(4-(methylsulfonyl)piperazin-1-yl)benzo[d]oxazol-2-yl)-3-(trifluoromethyl)phenol]"
7,100 to 1000,"CS(=O)(=O)N1CCN(c2cc3oc(-c4cc(O)c(F)c(C(F)(F)F)c4)nc3cn2)CC1 [Compound 6.01, 2-Fluoro-5-(6-(4-(methylsulfonyl)piperazin-1-yl)oxazolo[4,5-c]pyridin-2-yl)-3-(trifluoromethyl)phenol]"
8,1000 to 30000,"CS(=O)(=O)N1CCN(c2ccc3oc(-c4cc(C(F)(F)F)cc(O)n4)nc3c2)CC1 [Compound 7.01, 6-(5-(4-(Methylsulfonyl)piperazin-1-yl)benzo[d]oxazol-2-yl)-4-(trifluoromethyl)pyridin-2-ol]"
9,< 100,"Cn1nc(-c2cc(C(F)(F)F)c(F)c(O)c2F)c2cnc(N3CCOCC34CC4)cc21 [Compound 8, 2,6-Difluoro-3-(1-methyl-6-(7-oxa-4-azaspiro[2.5]octan-4-yl)-1H-pyrazolo[4,3-c]pyridin-3-yl)-5-trifluoromethyl phenol]"
10,< 100,"CN(c1cc2c(cn1)c(-c1cc(C(F)(F)F)c(F)c(O)c1F)nn2C)C1CC1 [Compound 9, 3-(6-(Cyclopropyl(methyl)amino)-1-methyl-1H-pyrazolo[4,3-c]pyridin-3-yl)-2,6-difluoro-5-(trifluoromethyl)phenol]"
11,< 100,"Cn1nc(-c2cc(C(F)(F)F)c(F)c(O)c2F)c2ccc(N3CCOCC34CC4)nc21 [Compound 9.03, 2,6-Difluoro-3-(1-methyl-6-(7-oxa-4-azaspiro[2.5]octan-4-yl)-1H-pyrazolo[3,4-b]pyridin-3-yl)-5-(trifluoromethyl)phenol]"
12,< 100,"Cn1nc(-c2cc(C(F)(F)F)c(F)c(O)c2F)c2cnc(N3CC(C)(C)C3)nc21 [Compound 9.06, 3-(6-(3,3-Dimethylazetidin-1-yl)-1-methyl-1H-pyrazolo[3,4-d]pyrimidin-3-yl)-2,6-difluoro-5-(trifluoromethyl)phenol]"
13,< 100,"CN(c1cc2c(cn1)c(-c1cc(C(F)(F)F)c(F)c(O)c1F)nn2C)C1CCC1 [Compound 9.07, 3-(6-(Cyclobutyl(methyl)amino)-1-methyl-1H-pyrazolo[4,3-c]pyridin-3-yl)-2,6-difluoro-5-(trifluoromethyl)phenol]"
14,100 to 1000,"Cn1nc(-c2cc(C(F)(F)F)c(F)c(O)c2F)c2cnc(N3CC(C)(C#N)C3)nc21 [Compound 9.09, 1-(3-(2,4-Difluoro-3-hydroxy-5-(trifluoromethyl)phenyl)-1-methyl-1H-pyrazolo[3,4-d]pyrimidin-6-yl)-3-methylazetidine-3-carbonitrile]"

# Same assay, conditions: at 10 uM compound; read-out: HSD17β13 % inhibition at 10 uM
row,inhibition at 10 µM [%],Structure (SMILES)
1,50,"O=C(NC12CC(C1)C2)c1ccc2oc(-c3cc(C(F)(F)F)cc(O)n3)nc2c1 [Compound 1.31, N-(Bicyclo[1.1.1]pentan-1-yl)-2-(6-hydroxy-4-(trifluoromethyl)pyridin-2-yl)benzo[d]oxazole-5-carboxamide]"
2,40,"CS(=O)(=O)N1CCN(c2ccc3oc(-c4cc(C(F)(F)F)c(F)c(O)n4)nc3c2)CC1 [Compound 7.02, 3-Fluoro-6-(5-(4-(methylsulfonyl)piperazin-1-yl)benzo[d]oxazol-2-yl)-4-(trifluoromethyl)pyridin-2-ol]"

# Same assay, conditions: at 30 uM compound; read-out: HSD17β13 % inhibition at 30 uM
row,inhibition at 30 µM [%],Structure (SMILES)
1,20,"Cc1cc(-c2nc3cc(C(=O)NC4CCC4)ccc3o2)cc(O)c1F [Compound 2.02, N-Cyclobutyl-2-(4-fluoro-3-hydroxy-5-methylphenyl)benzo[d]oxazole-5-carboxamide]"
